Assay: Solubility of photoacid generator compounds in cyclohexanone
Type: physicochemical
Conditions: cyclohexanone as solvent, with stirring; lower amount = better solubility
Description: In order to determine the solubility of photoacid generator compounds of the present invention, to a weighed amount of the compound to be tested is added cyclohexanone as the solvent with stirring. Determined is the amount of cyclohexanone needed to completely dissolve the photoacid generator compound. […]

## CC12CCC(C(=O)OCC(F)C(F)(F)S(=O)(=O)O)(OC1=O)C2(C)C (stereo not shown) [Example 57]
  Solvent needed to completely dissolve 10 g of the compound: 24 mL

From patent US8580478B2, “Latent acids and their use” (BASF SE, priority 2010, dated 2013)
